Results on eight compounds are retold here after US5686486A, “4-hydroxy-benzopyran-2-ones and 4-hydroxy-cycloalkyl[b]pyran-2-ones useful to treat retroviral infections” (priority 1995, dated 1997).

The assay concerns the target HIV-1 protease (Human immunodeficiency virus type 1 group M subtype B, UniProt P04585). Briefly: biochemical. The following applies: for inhibition at 1 µM: read-out: HIV-1 Protease % Inhib, dose 1.000 uM; for inhibition at 100 µM: read-out: HIV-1 Protease % Inhib, dose 100.000 uM; for inhibition at 0.123 µM: read-out: HIV-1 Protease % Inhib, dose 0.123 uM; for inhibition at 0.37 µM: read-out: HIV-1 Protease % Inhib, dose 0.370 uM. The method, then: The HIV protease screening assay is based on fluorescently labeled substrate which can be resolved from nonlabeled cleavage product using special beads coated with streptavidin. The substrate is biotinylated at the amino terminal arginine and fluorescently labeled with fluorescein isothiocynate (FITC) at the carboxyl terminal lysine. This assay has been employed to detect novel, nonpeptidic inhibitors of HIV-1 protease. Substrate (20 μl of 0.2 μM), sample (10 μl of desired concentration), and enzyme (10 μl of 0.1 μM) are added to a 96 well pandex plate. The assay is run in 0.1M sodium acetate buffer at pH 5.5 in the presence of 1.0M sodium chloride and 0.05% NP-40 with incubated in the dark for one hour at room temperature. Strepavidin coated polystyrene beads {40 μl of 0.1% (w/v)} are added and the plate is incubated in the dark for an additional half hour. The labeled cleavage product is separated from the unreacted substrate via filtration and is read on the Idexx screen machine. The data are analyzed by appropriate computer algorithms to ascertain percent inhibition values.

Where [1] appears, read: read-out: HIV-1 Protease % Inhib, dose 10.000 uM.
[2] abbreviates: read-out: HIV-1 Protease % Inhib, dose 1.100 uM.
The mark [3] stands for this setting: read-out: HIV-1 Protease % Inhib, dose 3.300 uM.
The mark [4] stands for this setting: read-out: HIV-1 Protease % Inhib, dose 30.000 uM.
[5] abbreviates: dose 3.300 uM, read-out: HIV-1 Protease % Inhib.
[6] abbreviates: dose 10.000 uM, read-out: HIV-1 Protease % Inhib.
The mark [7] stands for this setting: dose 30.000 uM, read-out: HIV-1 Protease % Inhib.

Each structure is given as a SMILES string. Several values for one entry are separate records, joined by “and”; a condition that tells them apart may be missing. Equal values may be shown once. Read-outs that look alike come from different tables or passages of the source. Some results are limits rather than exact numbers.

`CCC(c1cccc(NC(=O)CC[C@H](NC(=O)OC(C)(C)C)C(=O)OC(C)(C)C)c1)c1c(O)c2ccccc2oc1=O` (stereo partly drawn) [Example 51, L-Glutamine, N2-[(1,1-dimethylethoxy)carbonyl]-N-[3-[1-(4-hydroxy-2-oxo-2H-1-benzopyran-3-yl)propyl]phenyl]-, 1,1-dimethylethyl ester]: the inhibition at 1 µM was less than 10% and the inhibition at 100 µM worked out at 39.6%. Moreover, the inhibition at 10 µM under setting [1] is less than 10%.

Consider `O=C(O)c1cccc(S(=O)(=O)Nc2cccc(C(c3c(O)c4c(oc3=O)CCCCCC4)C3CC3)c2)c1` (stereo not shown) [Example 292, 3-[[[3-[Cyclopropyl(5,6,7,8,9,10-hexahydro4-hydroxy-2-oxo-2H-cycloocta[b]pyran-3-yl)methyl]phenyl]amino]sulfonyl]-benzoic acid], for which the inhibition at 0.123 µM is 74.4% and the inhibition at 0.37 µM amounted to 104%. Also, the inhibition at 1.1 µM under setting [2] is 111%. The inhibition at 3.3 µM under setting [3] was 125%. Under setting [1], the inhibition at 10 µM was 115%. Besides, under setting [4], the inhibition at 30 µM is 111%.

With `O=c1oc2c(c(O)c1C(c1ccc(NS(=O)(=O)c3ccc(Cl)cc3)cc1)C1CC1)CCCCCC2` (stereo not shown) [Example 473, Benzenesulfonamide, 4-chloro-N-[4-[cyclopropyl(5,6,7,8,9,10-hexahydro-4-hydroxy-2-oxo-2H-cycloocta[b]pyran-3-yl)methyl]phenyl]-], the inhibition at 3.3 µM under setting [5] turned out to be 14.4%. Besides, the inhibition at 10 µM under setting [6] amounted to 73.6%. For the same compound, the inhibition at 30 µM under setting [7] is 86.8%.

For the compound `CC(C)(C)OC(=O)N1CCC[C@H]1C(=O)Nc1cccc(C(c2c(O)c3c(oc2=O)CCCCCC3)C2CC2)c1` (stereo partly drawn) [Example 202, 1-(S)-Pyrrolidinecarboxylic acid, 2-[[[3-[cyclopropyl(5,6,7,8,9,10-hexahydro-4-hydroxy-2-oxo-2H-cycloocta[b]pyran-3-yl)methyl]phenyl]amino]carbonyl]-, 1,1-dimethylethyl ester], the inhibition at 0.123 µM turned out to be 20.1% and the inhibition at 0.37 µM stood at 48.1%. Besides, the inhibition at 1.1 µM under setting [2] came out at 73.1%. For the same compound, under setting [3], the inhibition at 3.3 µM was found to be 88.1%. For the same compound, the inhibition at 10 µM under setting [1] was determined as 93.8%. For the same compound, the inhibition at 30 µM under setting [4] was found to be 94.4%.

In the case of `CCC(c1cccc(O)c1)c1c(O)c2ccccc2oc1=O` (stereo not shown) [Example 103, Coumarin, 4-hydroxy-3-[1-(3-hydroxyphenyl)propyl]-], the inhibition at 1 µM is less than 10% and the inhibition at 100 µM was 80.9%. For the same compound, the “HIV-1 Protease % Inhib” value (dose 100.000 uM) is 87.29% and 73.35%. Besides, under setting [1], the inhibition at 10 µM was 25.7%.

For the compound `COc1ccc2c(O)c(C(c3cccc(NC(=O)OCc4ccccc4)c3)C3CC3)c(=O)oc2c1` (stereo not shown) [Example 166, Carbamic acid, [3-[cyclopropyl(4-hydroxy-7-methoxy-2-oxo-2H-1-benzopyran-3-yl)methyl]phenyl]-, phenylmethyl ester], the inhibition at 100 µM is 100%. Moreover, the inhibition at 0.41 µM (read-out: HIV-1 Protease % Inhib, dose 0.410 uM) was less than 10%. Moreover, under “read-out: HIV-1 Protease % Inhib, dose 1.230 uM”, the inhibition at 1.23 µM amounted to 13.2%. Besides, under “read-out: HIV-1 Protease % Inhib, dose 3.700 uM”, the inhibition at 3.7 µM came to 33.4%. Further, for the setting “read-out: HIV-1 Protease % Inhib, dose 11.000 uM”, the inhibition at 11 µM was found to be 58.9%. Moreover, the inhibition at 33 µM (read-out: HIV-1 Protease % Inhib, dose 33.000 uM) worked out at 89.1%.

For the compound `O=c1oc2c(c(O)c1C(c1cc(NS(=O)(=O)c3cccc4cccnc34)cc(NS(=O)(=O)c3cccc4cccnc34)c1)C1CC1)CCCCCC2` (stereo not shown) [Example 485, N-[3-[Cyclopropyl-(4-hydroxy-2-oxo-5,6,7,8,9,10-hexahydro-2H-cycloocta[b]pyran-3-yl)-methyl]-5-8-quinolinesulfonylamino-phenyl]-8-quinolinesulfonamide], the inhibition at 10 µM under setting [6] is 13.1%. The inhibition at 30 µM under setting [7] was determined as 54.2%.

Turning to `O=c1oc2c(c(O)c1C(c1ccccc1)C1CC1)CCCCC2CCC1OCCO1` (stereo not shown) [Example 186, 3-(Cyclopropylphenylmethyl)-9-[2-(1,3-dioxolan-2-yl)ethyl]-6,7,8,9-tetrahydro-4-hydroxy-cyclohepta[b]pyran-2(5H)-one], under “dose 1.100 uM, read-out: HIV-1 Protease % Inhib”, the inhibition at 1.1 µM worked out at 29.2%. Moreover, the inhibition at 3.3 µM under setting [5] worked out at 64.6%. Besides, under setting [6], the inhibition at 10 µM is 88.7%. The inhibition at 30 µM under setting [7] turned out to be 101%.
